Laboratory results from patent US20190211317A1, “PEPTIDES AND NANOPARTICLES FOR INTRACELLULAR DELIVERY OF GENOME-EDITING MOLECULES” (Aadigen, LLC, priority 2016, published 2019).

Assays:
Format in all cases: cell-based
[1] = test system: hPD1 gene in human T cells; test: hPD1 gene editing in primary human T cells (T7E1 assay)
Protocol: T cells were isolated from PBMCs (2 different donors) using anti-CD3/anti-CD28 antibodies bound to paramagnetic beads (Dynabeads ClinExVivo CD3/CD28, Invitrogen) at a ratio of 3:1 (beads:cells). The cells and beads were co-incubated for 2 hours at room temperature and CD3′ cell enrichment was performed using Dynal ClinExVIVO MPC magnet (Thermo Fisher). The anti-CD3/anti-CD28 paramagnetic beads were removed, washed and concentrated. Cells in the CD3′ fraction were resuspended in activation media at a concentration of 1×10^6 cells/ml with AIM-V medium (Thermo Fishers) supplemented with 10% fetal calf serum, 300 IU/ml IL2 and 50 ng/ml OKT3 (MuromonAB-CD3) for two days.
Cells were transfected by electroporation with CD-19 plasmid or gRNA/CAS9 (5 μg/10 μg) using a Nucleofector 2b (Lonza, Germany) with the Amaxa Human T cells Nucleofector Kit, VPA-1002 (Lonza, Germany). 5×10^6 cells were washed twice with DPBS by centrifuging at 800 rpm for 5 minutes and resuspended in 100 ^l transfection buffer, and then transferred into the electroporation cuvette. An optimized program selected for both high transfection and high efficiency on T cells was used. After electroporation, cells were resuspended in 500 ^l pre-warmed AIM-V medium containing 10% FBS and incubated at 37° C. in 5% CO2. The transfection efficiency was evaluated after 48 hr by flow cytometry or T7E1 assay.
As control, CAS9 loaded with gRNA targeting GFP was used.
Cells were returned to the incubator for 72 hours. CAS9-induced double-strand break followed by repair through non-homologous end joining (NHEJ) was analyzed by either the T7E1 assay or using the Genome Cleavage Detection kit (GCD Thermo Fisher) and quantified using Fragment Analyzer System. The indel frequency in the target gene was quantified using the T7E1 assay. The cultures were expanded and analyzed for viability and PD1 levels every 10 days. T cell expansion medium contained AIM V medium, supplemented with 5% heat-inactivated human AB Serum, 1% Gluta-Max, and 300 IU/mL IL-2.

[2] = test system: endogenous EMX1 gene in U2OS, HEPG2, K562 cells and primary human fibroblasts; test: EMX1 editing from CPP delivery of CAS9 protein/gRNA (T7E1); settings: each of the cell types tested; 2.5 μg/5 μg CAS9/gRNA
Protocol: CPP/CAS9/gRNA complexes were prepared by mixing preloaded CAS9/gRNA complexes (2.5 μg/5 μg CAS9/gRNA) with CPP peptides at a 20:1 molar ratio of CPP to cargo and incubating for 30 min at 37° C. prior to cell transfection. Cells were transfected according to the protocols described in Example 13a, and RNAiMAX-mediated delivery (Invitrogen Thermo Fisher France) was used as a control. EMX1 gene editing was analyzed at day 3 and day 6 by T7E1 assay and quantified using a Fragment Analyzer System.

[3] = test system: endogenous EMX1 gene in primary human T cells; test: EMX1 editing in primary human T cells with CAS9 mRNA, protein or plasmid plus gRNA (T7E1); settings: CAS9-expressing plasmid and gRNA; day 3
Protocol: CPP/CAS9 mRNA/gRNA complexes were formed by mixing the CAS9 mRNA (0.5 μg) and gRNA (5 μg) with CPP at a 20:1 molar ratio of CPP to nucleic acid (mRNA+gRNA) and incubating for 30 min at 37° C. prior to cell transfection. CPP/plasmid/gRNA complexes were formed by mixing CAS9 expressing plasmid (Addgene MLM3639-Plasmid #42252) (0.5 μg) and gRNA (5 μg) with CPP at a 20:1 molar ratio of CPP to nucleic acid (plasmid+gRNA) and incubating for 30 min at 37° C. prior to cell transfection. CPP/CAS9/gRNA complexes were formed by mixing preloaded CAS9/gRNA complexes (2.5 μg/5 μg CAS9/gRNA) with CPP at a 20:1 molar ratio of CPP to complex and incubating for 30 min at 37° C. prior to cell transfection.
T cells were transfected according to the protocol for suspension cells described in Example 13a. Lipofectamine 2000- and RNAiMAX-mediated delivery methods (Invitrogen Thermo Fisher France) were included as controls. EMX1 gene editing was analyzed at day 3, day 6, and day 10 by T7E1 assay and quantified using a Fragment Analyzer System.

## CC(C)C[C@H](NC(=O)[C@H](CCCNC(=N)N)NC(=O)[C@H](Cc1c[nH]c2ccccc12)NC(=O)[C@H](CCCNC(=N)N)NC(=O)[C@H](Cc1c[nH]c2ccccc12)NC(=O)CNC(=O)[C@H](C)NC(=O)[C@H](CO)NC(=O)[C@H](CCCNC(=N)N)NC(=O)[C@H](Cc1c[nH]c2ccccc12)NC(=O)[C@H](CCCCN)NC(=O)CCN)C(=O)N[C@@H](Cc1c[nH]c2ccccc12)C(=O)N[C@@H](CCCNC(=N)N)C(=O)N[C@H](C(=O)N[C@@H](CCCNC(=N)N)C(=O)N[C@@H](CO)C(=O)N[C@@H](Cc1c[nH]c2ccccc12)C(=O)N[C@@H](CO)C(=O)N[C@@H](CCCNC(=N)N)C(=O)O)C(C)C [ADGN-100a]
[1]; Donor 1, CAS9/sgRNA 2.5 μg/5 μg
  Mean indel Frequency ± s.e.m: 48 ± 6%
[1]; Donor 1, CAS9/sgRNA 5 μg/10 μg
  Mean indel Frequency ± s.e.m: 56 ± 4%
[1]; Donor 2, CAS9/sgRNA 2.5 μg/5 μg
  Mean indel Frequency ± s.e.m: 52 ± 5%
[1]; Donor 2, CAS9/sgRNA 5 μg/10 μg
  Mean indel Frequency ± s.e.m: 61 ± 8%
[1]; T cells from the two donors, 5 μg/10 μg CAS9/gRNA
  mean indel frequency of hPD1 gene: 58%
[2]
  mean indel frequencies: 60-65%
[3]
  mean indel frequencies: about 30%
